IC50 data for 21 molecules are collected here from patent publication US20170275298A1, “INHIBITORS OF THE RENAL OUTER MEDULLARY POTASSIUM CHANNEL” (Merck Sharp & Dohme Corp., priority 2014, published 2017).

In this assay the target is T1, hROMK (hKir1.1) (Homo sapiens, UniProt P48048).
T1 construct: expressed in transfected cells
T1 sequence (P48048 1-391): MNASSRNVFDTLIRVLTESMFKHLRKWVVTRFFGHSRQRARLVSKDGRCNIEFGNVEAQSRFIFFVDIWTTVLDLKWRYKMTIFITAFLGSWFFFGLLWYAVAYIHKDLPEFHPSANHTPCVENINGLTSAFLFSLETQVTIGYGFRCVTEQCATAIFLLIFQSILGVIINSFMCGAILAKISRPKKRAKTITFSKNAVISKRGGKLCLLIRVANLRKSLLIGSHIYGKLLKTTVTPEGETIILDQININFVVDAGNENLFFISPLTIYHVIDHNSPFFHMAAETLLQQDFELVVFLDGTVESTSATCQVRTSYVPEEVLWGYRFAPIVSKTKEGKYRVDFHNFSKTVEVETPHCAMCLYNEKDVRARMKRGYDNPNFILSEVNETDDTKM
The experiment in a line: Thallium Flux Assay (ROMK channel functional thallium flux assay). Format: cell-based. The settings on record: HEK293 cells stably expressing hROMK (hKir1.1); FluxOR thallium flux, FLIPR-Tetra, 30 min compound incubation; read-out: ROMK TI IC50. Summed up:
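HEK293 cells stably expressing hROMK (hKir1.1) loaded with FluxOR dye 90 min at ambient temperature, then compound 30 min before thallium/potassium stimulant (final 3 mM Tl/0.3 mM K). ROMK-sensitive flux defined by 3 μM standard inhibitor; data as % fluorescence change.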

What is called IC50 is the point on the concentration scale where inhibition reaches its midpoint. Regarding `Cc1cc(N2CCC3(CCN(C[C@H](O)c4ccc5c(c4C)COC5=O)CC3)C2=O)sn1` [Example 66, (R)-8-(2-hydroxy-2-(4-methyl-1-oxo-1,3-dihydroisobenzofuran-5-yl)ethyl)-2-(3-methylisothiazol-5-yl)-2,8-diazaspiro[4.5]decan-1-one], the IC50 is 17.5 nM.
Turning to `Cc1c([C@@H](O)CN2CCC3(CC2)CCN(c2ccnnc2)CC3)ccc2c1COC2=O` [Example 142, (R)-5-(1-hydroxy-2-(9-(pyridazin-4-yl)-3,9-diazaspiro[5.5]undecan-3-yl)ethyl)-4-methylisobenzofuran-1(3H)-one], the concentration for half-maximal inhibition (IC50) was 170 nM.
To `Cc1c([C@@H](O)CN2CCC3(CC2)CCN(c2cnn(C)c(=O)c2)CC3)ccc2c1COC2=O` [Example 110, (R)-5-(9-(2-hydroxy-2-(4-methyl-1-oxo-1,3-dihydroisobenzofuran-5-yl)ethyl)-3,9-diazaspiro[5.5]undecan-3-yl)-2-methylpyridazin-3(2H)-one] belongs 279 nM.
As to `COc1ncc(N2CCC3(CCN(C[C@H](O)c4ccc5c(c4C)COC5=O)CC3)C2)cn1` [Example 15, (R)-5-(1-hydroxy-2-(2-(2-methoxypyrimidin-5-yl)-2,8-diazaspiro[4.5]decan-8-yl)ethyl)-4-methylisobenzofuran-1(3H)-one], the IC50 turned out to be 284 nM.
For the molecule `Cc1c([C@@H](O)CN2CCC3(CC2)CCN(c2cc(-c4ccccc4)no2)C3=O)ccc2c1COC2=O` [Example 34, (R)-8-(2-hydroxy-2-(4-methyl-1-oxo-1,3-dihydroisobenzofuran-5-yl)ethyl)-2-(3-phenylisoxazol-5-yl)-2,8-diazaspiro[4.5]decan-1-one], the IC50 is 505 nM.
For `Cc1c([C@@H](O)CN2CCC3(CC2)CCN(c2ccc(=O)n(C)n2)C3)ccc2c1COC2=O` [Example 11, (R)-6-(8-(2-hydroxy-2-(4-methyl-1-oxo-1,3-dihydroisobenzofuran-5-yl)ethyl)-2,8-diazaspiro[4.5]decan-2-yl)-2-methylpyridazin-3(2H)-one], the IC50 is 67.6 nM.
`COc1cc([C@@H](O)CN2CCC3(CC2)CCN(c2ccns2)C3=O)ncc1C#N` [Example 70, (S)-6-(1-hydroxy-2-(2-(isothiazol-5-yl)-1-oxo-2,8-diazaspiro[4.5]decan-8-yl)ethyl)-4-methoxynicotinonitrile]: the IC50 stood at 695 nM.
The value for `Cc1c([C@@H](O)CN2CCC3(CC2)CCN(c2ccc(=O)n(C(F)F)c2)C3=O)ccc2c1COC2=O` [Example 54, (R)-2-(1-(difluoromethyl)-6-oxo-1,6-dihydropyridin-3-yl)-8-(2-hydroxy-2-(4-methyl-1-oxo-1,3-dihydroisobenzofuran-5-yl)ethyl)-2,8-diazaspiro[4.5]decan-1-one] was 293 nM.
As for `Cc1c([C@@H](O)CN2CCC3(CC2)CCN(c2ccnnc2)C3=O)ccc2c1COC2=O` [Example 90, (R)-8-(2-hydroxy-2-(4-methyl-1-oxo-1,3-dihydroisobenzofuran-5-yl)ethyl)-2-(pyridazin-4-yl)-2,8-diazaspiro[4.5]decan-1-one], the concentration for half-maximal inhibition (IC50) amounted to 120 nM.
Regarding `COc1ccncc1N1CCC2(CCN(C[C@H](O)c3ccc4c(c3C)COC4=O)CC2)C1=O` [Example 77, (R)-8-(2-hydroxy-2-(4-methyl-1-oxo-1,3-dihydroisobenzofuran-5-yl)ethyl)-2-(4-methoxypyridin-3-yl)-2,8-diazaspiro[4.5]decan-1-one], the IC50 was 697 nM.
The value for `Cc1c([C@@H](O)CN2CCC3(CC2)CCN(c2cc(C(F)(F)F)ncn2)C3=O)ccc2c1COC2=O` [Example 87, (R)-8-(2-hydroxy-2-(4-methyl-1-oxo-1,3-dihydroisobenzofuran-5-yl)ethyl)-2-(6-(trifluoromethyl)pyrimidin-4-yl)-2,8-diazaspiro[4.5]decan-1-one] was 643 nM; that for `Cc1c([C@@H](O)CN2CCC3(CC2)C[C@H](C)N(c2ccc(=O)n(C)n2)C3=O)ccc2c1COC2=O` [Example 97, (S)-8-((R)-2-hydroxy-2-(4-methyl-1-oxo-1,3-dihydroisobenzofuran-5-yl)ethyl)-3-methyl-2-(1-methyl-6-oxo-1,6-dihydropyridazin-3-yl)-2,8-diazaspiro[4.5]decan-1-one] was 378 nM; that for `Cc1c([C@@H](O)CN2CCC3(CC2)CCN(c2nccs2)CC3)ccc2c1COC2=O` [Example 137, (R)-5-(1-hydroxy-2-(9-(thiazol-2-yl)-3,9-diazaspiro[5.5]undecan-3-yl)ethyl)-4-methylisobenzofuran-1(3H)-one] was 283 nM.
Turning to `O=C1N(c2ccns2)CCC12CCN(C[C@H](O)c1ccc(-n3cnnn3)nc1)CC2` [Example 100, (R)-8-(2-(6-(1H-tetrazol-1-yl)pyridin-3-yl)-2-hydroxyethyl)-2-(isothiazol-5-yl)-2,8-diazaspiro[4.5]decan-1-one], the IC50 amounted to 769 nM.
As for `COc1nccc(N2CCOC3(CCN(C[C@H](O)c4ccc5c(c4C)COC5=O)CC3)C2=O)n1` [Example 24, (R)-9-(2-hydroxy-2-(4-methyl-1-oxo-1,3-dihydroisobenzofuran-5-yl)ethyl)-4-(2-methoxypyrimidin-4-yl)-1-oxa-4,9-diazaspiro[5.5]undecan-5-one], the IC50 is 30.2 nM.
Consider `Cc1c([C@@H](O)CN2CCC3(CC2)CCN(c2nsc(Cl)n2)C3)ccc2c1COC2=O` [Example 4, (R)-5-(2-(2-(5-chloro-1,2,4-thiadiazol-3-yl)-2,8-diazaspiro[4.5]decan-8-yl)-1-hydroxyethyl)-4-methylisobenzofuran-1(3H)-one], for which the IC50 turned out to be 45.1 nM.
To `Cc1c([C@@H](O)CN2CCC3(CC2)CC(=O)N(c2ccncc2)C3)ccc2c1COC2=O` [Example 79, (R)-8-(2-hydroxy-2-(4-methyl-1-oxo-1,3-dihydroisobenzofuran-5-yl)ethyl)-2-(pyridin-4-yl)-2,8-diazaspiro[4.5]decan-3-one] belongs 56.7 nM; to `Cc1c([C@@H](O)CN2CCC3(CC2)CCN(c2sncc2Cl)C3=O)ccc2c1COC2=O` [Example 105, (R)-2-(4-chloroisothiazol-5-yl)-8-(2-hydroxy-2-(4-methyl-1-oxo-1,3-dihydroisobenzofuran-5-yl)ethyl)-2,8-diazaspiro[4.5]decan-1-one], 54.2 nM; to `Cc1c([C@@H](O)CN2CCC3(CC2)CCN(c2nccnc2Cl)CC3)ccc2c1COC2=O` [Example 133, (R)-5-(2-(9-(3-chloropyrazin-2-yl)-3,9-diazaspiro[5.5]undecan-3-yl)-1-hydroxyethyl)-4-methylisobenzofuran-1(3H)-one], 274 nM.
To `COc1cc(N2CCC3(CCN(C[C@H](O)c4ccc5c(c4C)COC5=O)CC3)C2=O)ccn1` [Example 74, (R)-8-(2-hydroxy-2-(4-methyl-1-oxo-1,3-dihydroisobenzofuran-5-yl)ethyl)-2-(2-methoxypyridin-4-yl)-2,8-diazaspiro[4.5]decan-1-one] belongs 55.7 nM; to `Cc1c([C@@H](O)CN2CCC3(CC2)NCCN(c2ccc(=O)n(C)n2)C3=O)ccc2c1COC2=O` [Example 106, (R)-9-(2-hydroxy-2-(4-methyl-1-oxo-1,3-dihydroisobenzofuran-5-yl)ethyl)-4-(1-methyl-6-oxo-1,6-dihydropyridazin-3-yl)-1,4,9-triazaspiro[5.5]undecan-5-one], 361 nM.
